System: IgE production against ovalbumin (OVA)
Assay: Suppressive effect on the IgE production against ovalbumin (OVA); anti-OVA IgE antibody titer (PCA titer)
Format: in vivo
Details: BALB/c mice immunized with OVA; oral dose 40 mg/kg for 10 days; titer = n where serum PCA-positive till 2^n dilution
Method: Suppressive Effect on the IgE Production Against Ovalbumin (OVA)
BALB/c mice (female, 8-10 weeks old) and Wistar rats (female, 8-10 weeks old) which were bought from Japan SLC, Inc. (Shizuoka) were used.
BALB/c mice were immunized by an intraperitoneal administration of 0.2 ml suspension of 2 μg of ovalbumin (OVA) and 2 mg of aluminium hydroxide gel in physiological saline. After 10 days, blood was collected from hearts, then sera were separated and stocked at −40° C. till the measurement of IgE antibody titer.
After the compound of the present invention was dissolved or suspended in N,N-dimethylacetoamide, the mixture was diluted 20 times with miglyol 812 neutral oil. The obtained solution was orally administered to mice at 0.1 ml per mouse (dose 40 mg/kg). The administration was continued for 10 days from the immunizing day to the day before the blood collection.
4) Mesurement of Anti-OVA IgE Antibody Titer (PCA Titer)
The obtained mouse serum was 2-fold diluted with physiological saline, then each 50 μl the solution was intradermally injected at dorsal skin of Wistar rats which previously hair cut. […] The rats were sacrified 30 minutes later and the highest dilution giving bluing with a diameter of 5 mm or more was recorded as the PCA titer. […]

## Cc1c(C)c(-c2ccc(NC(C)C)nc2)c(C)c(C)c1-c1ccc(NC(C)C)nc1 [Compound 169]
  PCA (anti-OVA IgE antibody titer, PCA titer): <0

Source: patent US20040087604A1, “Hetero-tricyclic compounds having substituted amino groups” (priority 2001, published 2004)
